{"source": "paper PMC11217935", "about": "“Facile Halogenation of Antimicrobial Peptides As Demonstrated by Producing Bromotryptophan-Labeled Nisin Variants with Enhanced Antimicrobial Activity” (Journal of Natural Products, 2024)", "key": {"[1]": {"system": "Staphylococcus aureus LMG10147", "experiment": "MIC, broth microdilution", "type": "cell-based", "details": "S. aureus (text: 'S. aureus' / 'one S. aureus'; by Table 2 LMG10147); from MIC values", "experimental": "(§1) MIC values were determined using broth microdilution according to standard guidelines.[42] The inoculum was adjusted to approximately 5 × 10^5 CFU/mL, and the MIC was defined as the lowest concentration of antimicrobial compound with no visible growth after overnight incubation at 37 °C (or at 30 °C for L. lactis strain)."}, "[2]": {"system": "Enterococcus faecalis LMG16216 (VRE)", "experiment": "MIC, broth microdilution", "type": "cell-based", "details": "E. faecalis; from MIC values", "experimental": "as §1"}, "[3]": {"system": "Lactococcus lactis MG1363", "type": "cell-based", "details": "for fold decrease in activity: L. lactis (MG1363), from MIC values, I1W compared with nisin, analogue-labelled variants by the numbers compared with Trp variant", "experimental": "as §1"}, "[4]": {"experiment": "Spot-on-lawn assay to test lipid II binding", "type": "cell-based, Bacillus cereus", "details": "B. cereus CH-85 lawn on LB agar; lipid II (600 μM, 2 μL per Figure 6; 0.8 mol/L, 2 μL per method) spotted at edge of halo; overnight 37 °C; preliminary results", "experimental": "A 0.1% (v/v) inoculum of B. cereus CH-85 from an overnight culture was added to 1.5% (w/v) LB agar at 45 °C, and 10 mL of the mixture was poured onto a plate. The binding of the peptide to lipid II was evaluated by spotting purified lipid II ([…], 2 μL)[38],[41] at the edge of the 0.2 mg antibiotic inhibition halo. Specifically, 5 μL of the antibiotic was loaded onto the agar plate, and after drying, the lipid II solution was spotted at the edge of the inhibition halo. The plate was then incubated overnight at 37 °C."}, "[5]": {"system": "Staphylococcus aureus LMG15975 (MRSA)", "experiment": "MIC, broth microdilution", "type": "cell-based", "details": "one of two tested pathogens (S. aureus LMG15975 MRSA), WHO priority pathogen; compared with wild-type nisin", "experimental": "as §1"}, "Bacillus cereus CH-85": {"system": "Bacillus cereus CH-85", "experiment": "MIC, broth microdilution", "type": "cell-based", "details": "one of two tested pathogens (B. cereus CH-85); compared with wild-type nisin", "experimental": "as §1"}, "B. cereus CH-85": {"system": "B. cereus CH-85", "experiment": "Time-kill assay", "type": "cell-based, Bacillus cereus", "details": "within 3 h, 5 × 10^5 cells per mL, 37 °C, triplicate", "experimental": "The antimicrobial activity of nisin and its brominated variants was evaluated against B. cereus CH-85 using a previously described procedure.[38],[41] Briefly, an overnight culture of B. cereus was diluted 50-fold in LB medium and grown at 37 °C with aeration until reaching an OD600 of 0.5, after which the cell concentration was adjusted to 5 × 10^5 cells per mL. Bacteria were then exposed to different concentrations of nisin or brominated nisin variant in culture tubes at 37 °C and 180 rpm, with untreated bacteria serving as a negative control. At desired time points, 50 μL aliquots were taken, and 10-fold serial dilutions were plated on LB agar plates. After overnight incubation at 37 °C, colonies were counted, and colony-forming units (CFU) per milliliter were calculated. Each experiment was performed in triplicate."}, "[6]": {"system": "Enterococcus faecium LMG16003 (VRE)", "experiment": "MIC, broth microdilution", "type": "cell-based", "details": "E. faecium; from MIC values", "experimental": "as §1"}}, "data": [{"molecule": "C=C(NC(=O)[C@@H](NC(=O)[C@H](Cc1c[nH]cn1)NC(=O)[C@@H](NC(=O)[C@H](CO)NC(=O)[C@@H]1CS[C@@H](C)[C@H]2NC(=O)[C@H](C)NC(=O)[C@H](NC(=O)[C@H](CCCCN)NC(=O)[C@H](CCSC)NC(=O)[C@H](CC(N)=O)NC(=O)[C@@H]3CS[C@@H](C)[C@@H](NC(=O)[C@H](CCCCN)NC(=O)[C@@H]4CS[C@@H](C)[C@@H](NC(=O)[C@@H]5CSC[C@@H](NC(=O)/C(=C/C)NC(=O)[C@@H](N)Cc6c[nH]c7cc(Br)ccc67)C(=O)N[C@@H]([C@@H](C)CC)C(=O)NC(=C)C(=O)N[C@@H](CC(C)C)C(=O)N5)C(=O)N5CCC[C@H]5C(=O)NCC(=O)N4)C(=O)NCC(=O)N[C@@H](C)C(=O)N[C@@H](CC(C)C)C(=O)N[C@@H](CCSC)C(=O)NCC(=O)N3)[C@H](C)SC[C@H](NC2=O)C(=O)N[C@@H](Cc2c[nH]cn2)C(=O)N1)[C@@H](C)CC)C(C)C)C(=O)N[C@@H](CCCCN)C(=O)O", "note": "[nisin I1W 6BrTrp]", "values": [{"measurement": "fold decrease in activity", "setting": "[1]", "value": 2, "unit": "fold"}, {"measurement": "fold decrease in activity", "setting": "[2]", "value": 2, "unit": "fold"}, {"measurement": "MIC", "setting": "[3]", "value": 0.08, "unit": "µg/mL"}, {"measurement": "fold decrease in activity", "setting": "[3]", "value": 2, "unit": "fold"}]}, {"molecule": "C=C(NC(=O)[C@@H](NC(=O)[C@H](Cc1c[nH]cn1)NC(=O)[C@@H](NC(=O)[C@H](CO)NC(=O)[C@@H]1CS[C@@H](C)[C@H]2NC(=O)[C@H](C)NC(=O)[C@H](NC(=O)[C@H](CCCCN)NC(=O)[C@H](CCSC)NC(=O)[C@H](CC(N)=O)NC(=O)[C@@H]3CS[C@@H](C)[C@@H](NC(=O)[C@H](CCCCN)NC(=O)[C@@H]4CS[C@@H](C)[C@@H](NC(=O)[C@@H]5CSC[C@@H](NC(=O)/C(=C/C)NC(=O)[C@@H](N)Cc6c[nH]c7ccc(Br)cc67)C(=O)N[C@@H]([C@@H](C)CC)C(=O)NC(=C)C(=O)N[C@@H](CC(C)C)C(=O)N5)C(=O)N5CCC[C@H]5C(=O)NCC(=O)N4)C(=O)NCC(=O)N[C@@H](C)C(=O)N[C@@H](CC(C)C)C(=O)N[C@@H](CCSC)C(=O)NCC(=O)N3)[C@H](C)SC[C@H](NC2=O)C(=O)N[C@@H](Cc2c[nH]cn2)C(=O)N1)[C@@H](C)CC)C(C)C)C(=O)N[C@@H](CCCCN)C(=O)O", "note": "[nisin I1W 5BrTrp]", "values": [{"measurement": "effect of externally added purified lipid II on antimicrobial activity (inhibition halo)", "setting": "[4]", "value": "decreased the antimicrobial activity"}, {"measurement": "fold improvement in antimicrobial activity", "setting": "[5]", "value": 2, "unit": "fold"}, {"measurement": "fold improvement in antimicrobial activity", "setting": "Bacillus cereus CH-85", "value": 2, "unit": "fold"}, {"measurement": "MIC", "setting": "[3]", "value": 0.04, "unit": "µg/mL"}, {"measurement": "killing activity (viability of exponential culture)", "setting": "B. cereus CH-85; B. cereus CH-85, 2.5 μg/mL (lowest concentration tested)", "value": "only slight killing"}, {"measurement": "killing activity (viability of exponential culture)", "setting": "B. cereus CH-85; B. cereus CH-85, 15 μg/mL", "value": "slower bactericidal activity than did nisin"}]}, {"molecule": "C=C(NC(=O)[C@@H](NC(=O)[C@H](Cc1c[nH]cn1)NC(=O)[C@@H](NC(=O)[C@H](CO)NC(=O)[C@@H]1CS[C@@H](C)[C@H]2NC(=O)[C@H](C)NC(=O)[C@H](NC(=O)[C@H](CCCCN)NC(=O)[C@H](CCSC)NC(=O)[C@H](CC(N)=O)NC(=O)[C@@H]3CS[C@@H](C)[C@@H](NC(=O)[C@H](CCCCN)NC(=O)[C@@H]4CS[C@@H](C)[C@@H](NC(=O)[C@@H]5CSC[C@@H](NC(=O)/C(=C/C)NC(=O)[C@@H](N)Cc6c[nH]c7ccc(O)cc67)C(=O)N[C@@H]([C@@H](C)CC)C(=O)NC(=C)C(=O)N[C@@H](CC(C)C)C(=O)N5)C(=O)N5CCC[C@H]5C(=O)NCC(=O)N4)C(=O)NCC(=O)N[C@@H](C)C(=O)N[C@@H](CC(C)C)C(=O)N[C@@H](CCSC)C(=O)NCC(=O)N3)[C@H](C)SC[C@H](NC2=O)C(=O)N[C@@H](Cc2c[nH]cn2)C(=O)N1)[C@@H](C)CC)C(C)C)C(=O)N[C@@H](CCCCN)C(=O)O", "note": "[nisin I1W 5OHTrp]", "values": [{"measurement": "fold decrease in activity", "setting": "[1]", "value": 2, "unit": "fold"}, {"measurement": "fold decrease in activity", "setting": "[6]", "value": 2, "unit": "fold"}, {"measurement": "MIC", "setting": "[3]", "value": 0.08, "unit": "µg/mL"}, {"measurement": "fold decrease in activity", "setting": "[3]", "value": 2, "unit": "fold"}]}, {"molecule": "daptomycin [reference compound]", "values": [{"measurement": "effect of externally added purified lipid II on antimicrobial activity (inhibition halo)", "setting": "[4]", "value": "maintained its antimicrobial activity"}]}, {"molecule": "C=C(NC(=O)[C@@H](NC(=O)[C@H](Cc1c[nH]cn1)NC(=O)[C@@H](NC(=O)[C@H](CO)NC(=O)[C@@H]1CS[C@@H](C)[C@H]2NC(=O)[C@H](C)NC(=O)[C@H](NC(=O)[C@H](CCCCN)NC(=O)[C@H](CCSC)NC(=O)[C@H](CC(N)=O)NC(=O)[C@@H]3CS[C@@H](C)[C@@H](NC(=O)[C@H](CCCCN)NC(=O)[C@@H]4CS[C@@H](C)[C@@H](NC(=O)[C@@H]5CSC[C@@H](NC(=O)/C(=C/C)NC(=O)[C@@H](N)Cc6c[nH]c7ccccc67)C(=O)N[C@@H]([C@@H](C)CC)C(=O)NC(=C)C(=O)N[C@@H](CC(C)C)C(=O)N5)C(=O)N5CCC[C@H]5C(=O)NCC(=O)N4)C(=O)NCC(=O)N[C@@H](C)C(=O)N[C@@H](CC(C)C)C(=O)N[C@@H](CCSC)C(=O)NCC(=O)N3)[C@H](C)SC[C@H](NC2=O)C(=O)N[C@@H](Cc2c[nH]cn2)C(=O)N1)[C@@H](C)CC)C(C)C)C(=O)N[C@@H](CCCCN)C(=O)O", "note": "[nisin I1W Trp]", "values": [{"measurement": "MIC", "setting": "[3]", "value": 0.04, "unit": "µg/mL"}, {"measurement": "fold decrease in activity", "setting": "[3]", "value": 2, "unit": "fold"}]}]}
